Reference: paper PMC4738305, “Metabolism and Disposition of Aditoprim in Swine, Broilers, Carp and Rats” (Scientific Reports, 2016)

Tests used:
[1] = Concentration and elimination of ADP and its metabolites in liver, kidney, muscle, fat/skin after oral ^3H-ADP for 7 d; assay type: in vivo, swine; details: swine, oral, 5 mg/kg b.w.
Experimental: (§1) A total of 36 animals from each species (swine n = 24) were randomly assigned to six equal treatment groups and administered a single daily dose of ^3 H-ADP at 5 mg/kg b. w. (0.1 Ci/g) through oral gavage for 7 consecutive days. All the animals were housed on the basis of their group in the cages or aquaria throughout the whole study period. A group of animals was slaughtered through exsanguination under diethyl ether inhalation of anesthesia in the period of 6 h, 1, 3, 7, 14, and 21 d after the administration. The blood samples were immediately collected into the heparinized tubes and was centrifuged at 1920 × g at 4 °C for 10 min to obtain the plasma. The tissues from the heart, liver, spleen, lung, kidney, craw (broilers), stomach, intestine, fat, skin, muscle, thymus, pancreas, bile, bladder, hair (scale for carp), genital gland, adrenal glands, swim bladder (carp), brain, lymph, and bursa (broilers) were carefully excised and collected. The tissues were thoroughly rinsed with the deionized water to remove the residuary blood, blotted to dryness, and finally to perform the homogenization. In order to avoid cross-contamination the dissecting instruments were washed during the tissue procurements. The blank tissues were collected in order to provide control matrices. The total radioactivity levels in each sample were determined through LSC. The samples extracted from the plasma, bile, and tissues of the liver, kidney, muscle, and fat/skin were analyzed through LC/MS-IT-TOF and v. ARC radiometric detection for metabolite profiling. The blank samples were used as control to determine the background radioactivity or the endogenous nondrug-related ions observed within respective matrices or their extracts.
(§2) The feces and tissues (2 g) were diluted with a mixture of methanol and chloroform (1:3, v:v; 2 mL/g homogenate). This procedure was carried out in a fume hood for the safety aspects. The pH value was adjusted to 9.0 with NH4OH. The mixture was vortexed and sonicated for 5 min and 10 min, respectively, and finally the samples were centrifuged at 7690 × g for 10 min. The supernatant was aspirated and then transferred into a new centrifuge tube. The obtained pellet was again subjected to the same process of vortex, ultrasonication, extraction, and centrifugation. The combined supernatant was concentrated under a stream of nitrogen in a water bath at 40 °C. The residue was reconstituted with 0.3 mL of methanol–water (1:9, v:v) before the injection into the LC-v. ARC/MS-IT-TOF system for analysis.
(§3) ADP and its metabolites in the prepared samples were determined with a v. ARC radiometric detector and a hybrid IT/TOF mass spectrometer connected to the HPLC system (Shimadzu Corp., Kyoto, Japan). The LC system was equipped with a solvent delivery pump (LC-20AD), an auto-sampler (SIL-20AC), a degasser (DGU-20 A 3), a photodiode array detector (SPD-M20A), a communication base module (CBM-20 A), and a column oven (CTO-20AC). The chromatographic separation was achieved by using an Agilent extend-C18 column (2.1 mm × 150 mm, 5 μm) with a gradient mobile phase of A (0.01% ammonia and 5 mM ammonium acetate in water) and B (methanol) at a flow rate of 0.2 mL/min. The column temperature was maintained at 35 °C. Various HPLC methods were performed because of the large number of different metabolites to be analyzed. For the porcine sample, method 1 started at 5% B and increased to 20% B over 35 min, then to 55% B by 60 min, followed by re-equilibration for another 10 min. For the remaining samples, method 2 started at 10% B and increased to 60% B over 30 min, subsequently was maintained at 60% B for an additional 10 min, and then changed to 90% B over 2 min and maintained for 2 min. Afterwards, a re-equilibration step (decreased to 10% B over 1 min and maintained at 10% B for additional 9 min) was followed. For each matrix, more than 98% of the radioactivity injected into the column was eluted during the running time of the gradient program. […]

[2] = Metabolite profiling of ADP in excreta, plasma and bile (LC-v.ARC/MS-IT-TOF); assay type: in vivo, broilers
Experimental: (§4) Animals (4 swine, 6 broilers, 6 carp, and 3 male and 3 female rats) were housed individually in clean, suspended wire-mesh metabolism cages, designed to separate the urine from the feces (carp were raised in individual aquaria). Each animal was weighed and assigned with a permanent identification number. A single dose of ^3 H-ADP (5 mg/kg b. w., 0.1 Ci/g) was administered via the oral gavage. Excreta were collected on ice at the pre-administration, in the period of 6, 12, and 24 h on day 1 d, and afterwards, intermittently in the period of 24 h up to 14 d. The piscine excreta were collected by changing and collecting raised water. The total volume or weight of each sample was measured and homogenized. The total radioactivity levels were determined through LSC for the recovery calculations. After the preparation, the samples were analyzed through LC/MS-IT-TOF with v. ARC radiometric detection (XenoBioticLaboratories, Inc.) for metabolite profiling. The pretreatment samples were used as controls to determine the background radioactivity or the endogenous nondrug-related ions observed within respective matrices or their extracts.
as §1
(§5) For metabolite profiling, the urine and feces samples from each animals were pooled proportionally to the excreted amount in each sampling period from 0 to 6 h, 6 h to 1 d, 1 to 3 d, 3 to 7 d, and 7 to 14 d post-dose, respectively. All samples were fully homogenized before the process. The pre-dose and blank samples served as the controls for determining the background radioactivity or the endogenous, nondrug-related ions observed within respective matrices or their extracts.
(§6) The urine samples (plasma, bile and raised water for carp) was subjected to solid-phase extraction with an Oasis MCX cartridge (3 mL, […]; Waters, Milford, MA, USA) for metabolite purification and enrichment. The pH value was adjusted to 2.8–3.2 by adding 1 M hydrochloric acid (HCl), and 2 mL of the sample was transferred into MCX cartridge, which was preconditioned with 3 mL of methanol and 3 mL of 0.1 mol/L HCl solution. The cartridge was washed with 3 mL of 0.1 mol/L HCl solution and was eluted with 5 mL of NH4OH/methanol (4:96, v:v). The effluent was concentrated to dryness under a stream of nitrogen at 40 °C. […]

[3] = Concentration and elimination of ADP and its metabolites in liver, kidney, muscle, fat/skin after oral ^3H-ADP for 7 d; assay type: in vivo, broilers; details: broiler chicken, kidney, oral, 5 mg/kg b.w.
Experimental: as §1, §2, §3

[4] = Metabolite profiling of ADP in excreta, plasma and bile (LC-v.ARC/MS-IT-TOF); assay type: in vivo, swine; details: for percentage of the individual metabolite compared with the total concentration of ADP-related: within 6 h after dosing; for Average percentage of ADP and its metabolites in total dose: Swine, Urine, single oral 5 mg/kg b.w. ^3H-ADP
Experimental: as §4, §1, §5, §6

[5] = Concentration and elimination of ADP and its metabolites in liver, kidney, muscle, fat/skin after oral ^3H-ADP for 7 d; assay type: in vivo, rats; details: rat, liver, oral, 5 mg/kg b. w.
Experimental: as §1, §2, §3

[6] = Metabolite profiling of ADP in excreta, plasma and bile (LC-v.ARC/MS-IT-TOF); assay type: in vivo, rats
Experimental: as §4, §1, §5, §6

[7] = rats, within 3 d; cited from earlier work

Row | Compound | concentration at 0.25 d ([1]; liver) | percentage of the individual metabolite compared with the total concentration of ADP-related ([2]; Broilers Extra (excreta), within 6 h after dosing) | Average percentage of ADP and its metabolites in total dose ([2]; Broilers, Excreta, single oral 5 mg/kg b.w. ^3H-ADP) | concentration at 0.25 d [3] | percentage of the individual metabolite compared with the total concentration of ADP-related ([4]; Swine Urine) | Average percentage of ADP and its metabolites in total dose [4] | concentration at 0.25 d ([1]; kidney) | concentration at 1 d ([1]; kidney) | concentration at 1 d ([1]; liver) | percentage of the individual metabolite compared with the total concentration of ADP-related ([4]; Swine Plasma) | concentration at 0.25 d [5] | Average percentage of ADP and its metabolites in total dose ([6]; Rat, Urine, single oral 5 mg/kg b.w. ^3H-ADP) | percentage of the individual metabolite compared with the total concentration of ADP-related ([6]; Rats Urine, within 6 h after dosing) | oral dose recovered [7]
1 | COc1cc(Cc2cnc(N)nc2N)cc(O)c1N(C)C [A3, 3-OH-ADP] | 940 ± 170 ng/g | 3.5% | 6.4% | 110 ± 90 ng/g | 9.7% | 5.4% |  |  |  |  |  |  |  | 
2 | CNc1c(O)cc(C(O)c2cnc(N)nc2N)cc1OC (stereo not shown) [A4, 3-OH-4-methylamino-ADP] | 320 ± 30 ng/g |  |  |  | 4.8% | 3.1% | 520 ± 80 ng/g | 480 ± 260 ng/g | 270 ± 40 ng/g | 4.6% |  |  |  | 
3 | CNc1c(OC)cc(C(O)c2cnc(N)nc2N)cc1OC (stereo not drawn) [A5, 4-methylamino-α-OH-ADP] | 430 ± 40 ng/g |  |  |  | 1.2% | 1.9% | 710 ± 110 ng/g | 270 ± 150 ng/g | 260 ± 40 ng/g | 1.6% |  |  |  | 
4 | COc1cc(C(O)c2cnc(N)nc2N)cc(O)c1N(C)C (stereo not drawn) [A6, 3-OH-α-OH-ADP] | 360 ± 40 ng/g |  |  |  | 6.4% | 3.7% | 690 ± 100 ng/g | 60 ± 30 ng/g |  | 3.8% | 10 ± 10 ng/g | 0.5% | 3.1% | 
5 | COc1cc(Cc2cnc(N)nc2N)cc(OC)c1OC [TMP, trimethoprim] |  |  |  |  |  |  |  |  |  |  |  |  |  | more than 95 % of the oral dose

Second part, led by results:

Row | concentration at 0.25 d ([1]; liver) | percentage of the individual metabolite compared with the total concentration of ADP-related ([2]; Broilers Extra (excreta), within 6 h after dosing) | Average percentage of ADP and its metabolites in total dose ([2]; Broilers, Excreta, single oral 5 mg/kg b.w. ^3H-ADP) | concentration at 0.25 d [3] | percentage of the individual metabolite compared with the total concentration of ADP-related ([4]; Swine Urine) | Average percentage of ADP and its metabolites in total dose [4] | concentration at 0.25 d ([1]; kidney) | concentration at 1 d ([1]; kidney) | concentration at 1 d ([1]; liver) | percentage of the individual metabolite compared with the total concentration of ADP-related ([4]; Swine Plasma) | concentration at 0.25 d [5] | Average percentage of ADP and its metabolites in total dose ([6]; Rat, Urine, single oral 5 mg/kg b.w. ^3H-ADP) | percentage of the individual metabolite compared with the total concentration of ADP-related ([6]; Rats Urine, within 6 h after dosing) | Compound | oral dose recovered [7]
6 | 790 ± 170 ng/g |  |  |  | 1.9% | 1.8% |  |  | 450 ± 90 ng/g |  |  |  |  | CNc1c(O)cc(Cc2cnc(N)nc2N)cc1OC [A7, 4-methylamino-3-OH-ADP] | 
7 | 20 ng/g |  |  |  | 1.4% | 1.0% |  |  |  |  |  |  |  | COc1cc(C(O)c2cnc(N)nc2N)cc(OC)c1N(C)C (stereo not drawn) [A8, α-OH-ADP] | 
